The source made the active and inactive calls.
Legend:
[1] = system: HEK293; experiment: HEK293T cell viability loss, resazurin readout – resazurin fluorescence, cytotoxicity control for NF-kB activator project, SAR follow-up (AID 493251); assay type: functional, cell-based; details: Homo sapiens
[2] = target: T1, Endoribonuclease toxin MazF (Escherichia coli K-12, UniProt P0AE70); experiment: activation of MazEF endoribonuclease cleavage – biochemical, fluorescence, single-stranded RNA substrate, uHTS hits, dose response (AID 588481); assay type: functional
T1 sequence (P0AE70 whole entry): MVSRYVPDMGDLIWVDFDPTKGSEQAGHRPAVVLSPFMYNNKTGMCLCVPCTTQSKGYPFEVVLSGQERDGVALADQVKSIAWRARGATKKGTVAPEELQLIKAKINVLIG

[3] = target: CAAX prenyl protease 1 (Saccharomyces cerevisiae S288c, UniProt P47154); experiment: yeast CAAX protease Ste24 inhibition – biochemical, S. cerevisiae, plate reader, cherry-pick, dose response (AID 488815)
CAAX prenyl protease 1, sequence (P47154 whole entry): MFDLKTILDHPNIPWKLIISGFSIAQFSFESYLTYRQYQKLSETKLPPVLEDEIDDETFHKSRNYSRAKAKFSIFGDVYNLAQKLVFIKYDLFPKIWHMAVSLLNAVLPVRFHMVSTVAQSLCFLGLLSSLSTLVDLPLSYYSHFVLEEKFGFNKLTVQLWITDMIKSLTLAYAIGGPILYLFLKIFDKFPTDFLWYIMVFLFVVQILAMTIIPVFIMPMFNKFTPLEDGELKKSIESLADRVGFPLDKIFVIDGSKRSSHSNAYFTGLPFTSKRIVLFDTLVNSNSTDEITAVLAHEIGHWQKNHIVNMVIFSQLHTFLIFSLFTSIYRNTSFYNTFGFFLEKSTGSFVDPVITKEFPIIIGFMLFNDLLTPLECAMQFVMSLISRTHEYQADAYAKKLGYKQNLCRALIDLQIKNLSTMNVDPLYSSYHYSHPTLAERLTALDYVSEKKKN

[4] = target: Trypsin (Sus scrofa, UniProt P00761); experiment: trypsin protease activity blockade – biochemical, quenched peptide fluorescence, cherry-pick, selectivity assay for Rce1 protease inhibitor project, dose response (AID 488789)
Trypsin, sequence (P00761 whole entry): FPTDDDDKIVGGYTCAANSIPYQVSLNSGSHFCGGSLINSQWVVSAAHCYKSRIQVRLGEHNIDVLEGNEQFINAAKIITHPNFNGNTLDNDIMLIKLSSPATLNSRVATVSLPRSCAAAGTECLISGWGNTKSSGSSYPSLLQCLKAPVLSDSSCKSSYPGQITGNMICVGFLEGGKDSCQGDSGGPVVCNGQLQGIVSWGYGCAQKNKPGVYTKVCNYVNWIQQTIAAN

[5] = target: Melanocortin receptor 4 (Homo sapiens, UniProt P32245); assay type: functional, cell-based;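 also: Cell-based assay with luminescence read-out, confirmatory dose-response testing for agonist activity of biased ligands at MC4R; human U2OS cells with tagged receptor and beta-arrestin; potency of agonists that increase receptor coupling to beta-arrestin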
Melanocortin receptor 4, sequence (P32245 whole entry): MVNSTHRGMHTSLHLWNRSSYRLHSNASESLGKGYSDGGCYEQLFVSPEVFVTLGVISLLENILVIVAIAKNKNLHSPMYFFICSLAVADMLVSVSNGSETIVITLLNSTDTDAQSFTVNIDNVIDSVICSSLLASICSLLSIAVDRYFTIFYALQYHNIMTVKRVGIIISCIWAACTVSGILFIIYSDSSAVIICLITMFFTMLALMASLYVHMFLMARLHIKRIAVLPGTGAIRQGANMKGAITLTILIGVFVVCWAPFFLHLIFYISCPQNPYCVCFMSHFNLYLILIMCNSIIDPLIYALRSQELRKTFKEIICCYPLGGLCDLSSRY

[6] = target: T2, CAAX prenyl protease 2 (Saccharomyces cerevisiae S288c, UniProt Q03530); assay type: biochemical
T2 sequence (Q03530 whole entry): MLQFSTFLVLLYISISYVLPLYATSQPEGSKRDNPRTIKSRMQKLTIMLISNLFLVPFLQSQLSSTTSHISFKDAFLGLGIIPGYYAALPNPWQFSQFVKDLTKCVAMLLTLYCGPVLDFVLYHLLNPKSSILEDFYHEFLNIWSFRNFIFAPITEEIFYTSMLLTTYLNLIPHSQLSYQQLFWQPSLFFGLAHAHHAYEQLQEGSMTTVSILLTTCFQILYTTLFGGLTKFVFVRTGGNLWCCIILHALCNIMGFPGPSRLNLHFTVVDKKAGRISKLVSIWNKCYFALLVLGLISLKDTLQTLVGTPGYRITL

[7] = target: T1, Endoribonuclease toxin MazF; experiment: substrate-only fluorescence increase artefacts – biochemical, single-stranded RNase substrate, counter-screen for MazEF activator project, dose response (AID 588502); assay type: functional
[8] = system: BJ; experiment: BJ-TERT-LT-ST fibroblast viability loss – cell-based, RAS-independent, luminescence, dose response (AID 1935); assay type: functional; details: Homo sapiens;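 also: BJ fibroblasts immortalized with TERT plus LT and ST oncogenes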
[9] = viability loss of HMLE_sh_eGFP cells – cell-based, luminescence, counter-screen for HMLE_sh_ECad selective toxicity project, dose response (AID 463074); assay type: functional, Homo sapiens;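 also: HMLE human mammary epithelial cells expressing control shRNA against eGFP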
[10] = Luminescence Cell-Based Dose Retest to Confirm Inhibitors of Cancer Stem Cells. [Related pubchem assays (depositor defined):AID2717, AID2721]; assay type: functional; details: Homo sapiens
[11] = system: BJ; experiment: cells; assay type: functional, cell-based; details: Homo sapiens
[12] = NIH3T3 cell viability loss – ATP luminescence, mouse fibroblasts, counter-screen, dose response (AID 2010); assay type: functional, cell-based;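 also: cells exposed to compound for about 90 hours before reading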
[13] = DRD fibroblast viability loss – cell-based, non-viral oncogenic, luminescence, dose response (AID 1934); assay type: functional; details: Homo sapiens
[14] = system: BJ; experiment: BJ-TERT fibroblast viability loss – cell-based, RAS-independent, luminescence, dose response (AID 1933); assay type: functional; details: Homo sapiens
[15] = Trypanosoma cruzi growth suppression in host cells – NIH3T3 host cells, beta-gal luminescence, confirmation (AID 2044); assay type: functional, cell-based;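 also: intracellular parasites grown in NIH/3T3 mouse fibroblasts as host cells; luminescent beta-galactosidase reporter signal from transgenic T. cruzi replicating inside host cells; inhibitors lower the luminescence signal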
[16] = target: CAAX prenyl protease 2 (Homo sapiens, UniProt Q9Y256); experiment: inhibition of Ras-converting CAAX protease Rce1 – biochemical, yeast membranes, quenched-peptide fluorescence, cherry-pick, dose response (AID 588849)
CAAX prenyl protease 2 (Homo sapiens, UniProt Q9Y256), sequence (Q9Y256 whole entry): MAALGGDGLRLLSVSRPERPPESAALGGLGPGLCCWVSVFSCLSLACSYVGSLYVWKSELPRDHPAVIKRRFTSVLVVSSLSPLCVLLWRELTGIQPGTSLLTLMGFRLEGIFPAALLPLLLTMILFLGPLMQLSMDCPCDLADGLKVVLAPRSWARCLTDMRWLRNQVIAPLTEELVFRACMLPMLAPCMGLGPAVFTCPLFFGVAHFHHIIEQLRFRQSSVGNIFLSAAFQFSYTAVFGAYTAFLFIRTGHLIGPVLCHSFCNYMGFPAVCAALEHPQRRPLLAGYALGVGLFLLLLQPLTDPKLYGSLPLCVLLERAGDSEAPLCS

[17] = target: T3, sn-1-specific diacylglycerol lipase ABHD11 (Mus musculus, UniProt Q8K4F5); experiment: Late stage assay provider results from the probe development effort to identify inhibitors of LYPLA1: fluorescence-based cell-based gel-based Activity-Based Protein Profiling (ABPP) IC50 for anti-target ABHD11. [Related pubchem assays (depositor defined):AID2174, AID2177, AID2202, AID2203, AID2232, AID2233, AID493105, AID493108, AID493109, AID493110, AID493111, AID493154, AID493161, AID504892]; assay type: functional
T3 sequence (Q8K4F5 whole entry): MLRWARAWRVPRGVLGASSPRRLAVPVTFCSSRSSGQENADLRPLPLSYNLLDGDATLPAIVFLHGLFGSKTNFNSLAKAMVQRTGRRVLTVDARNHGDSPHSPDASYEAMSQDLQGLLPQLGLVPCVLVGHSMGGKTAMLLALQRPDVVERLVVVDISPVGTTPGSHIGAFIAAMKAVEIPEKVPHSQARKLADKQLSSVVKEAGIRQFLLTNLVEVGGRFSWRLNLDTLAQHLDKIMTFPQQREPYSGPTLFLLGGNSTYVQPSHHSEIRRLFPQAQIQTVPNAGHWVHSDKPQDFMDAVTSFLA

[18] = target: T3, sn-1-specific diacylglycerol lipase ABHD11; experiment: Late stage assay provider results from the probe development effort to identify inhibitors of LYPLA1 and LYPLA2: Gel-based Activity-Based Protein Profiling (ABPP) IC50 for off-target ABHD11. [Related pubchem assays (depositor defined):AID2174, AID2202, AID2203, AID2233, AID504482, AID504498, AID504505, AID504507, AID504510, AID504520, AID504522, AID504892]; assay type: functional
[19] = target: Voltage-gated inwardly rectifying potassium channel KCNH2 (Homo sapiens, UniProt Q12809); details: Potency;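 also: confirmatory quantitative high-throughput screen measuring inhibition of hERG channel activity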
Voltage-gated inwardly rectifying potassium channel KCNH2, sequence (Q12809 whole entry): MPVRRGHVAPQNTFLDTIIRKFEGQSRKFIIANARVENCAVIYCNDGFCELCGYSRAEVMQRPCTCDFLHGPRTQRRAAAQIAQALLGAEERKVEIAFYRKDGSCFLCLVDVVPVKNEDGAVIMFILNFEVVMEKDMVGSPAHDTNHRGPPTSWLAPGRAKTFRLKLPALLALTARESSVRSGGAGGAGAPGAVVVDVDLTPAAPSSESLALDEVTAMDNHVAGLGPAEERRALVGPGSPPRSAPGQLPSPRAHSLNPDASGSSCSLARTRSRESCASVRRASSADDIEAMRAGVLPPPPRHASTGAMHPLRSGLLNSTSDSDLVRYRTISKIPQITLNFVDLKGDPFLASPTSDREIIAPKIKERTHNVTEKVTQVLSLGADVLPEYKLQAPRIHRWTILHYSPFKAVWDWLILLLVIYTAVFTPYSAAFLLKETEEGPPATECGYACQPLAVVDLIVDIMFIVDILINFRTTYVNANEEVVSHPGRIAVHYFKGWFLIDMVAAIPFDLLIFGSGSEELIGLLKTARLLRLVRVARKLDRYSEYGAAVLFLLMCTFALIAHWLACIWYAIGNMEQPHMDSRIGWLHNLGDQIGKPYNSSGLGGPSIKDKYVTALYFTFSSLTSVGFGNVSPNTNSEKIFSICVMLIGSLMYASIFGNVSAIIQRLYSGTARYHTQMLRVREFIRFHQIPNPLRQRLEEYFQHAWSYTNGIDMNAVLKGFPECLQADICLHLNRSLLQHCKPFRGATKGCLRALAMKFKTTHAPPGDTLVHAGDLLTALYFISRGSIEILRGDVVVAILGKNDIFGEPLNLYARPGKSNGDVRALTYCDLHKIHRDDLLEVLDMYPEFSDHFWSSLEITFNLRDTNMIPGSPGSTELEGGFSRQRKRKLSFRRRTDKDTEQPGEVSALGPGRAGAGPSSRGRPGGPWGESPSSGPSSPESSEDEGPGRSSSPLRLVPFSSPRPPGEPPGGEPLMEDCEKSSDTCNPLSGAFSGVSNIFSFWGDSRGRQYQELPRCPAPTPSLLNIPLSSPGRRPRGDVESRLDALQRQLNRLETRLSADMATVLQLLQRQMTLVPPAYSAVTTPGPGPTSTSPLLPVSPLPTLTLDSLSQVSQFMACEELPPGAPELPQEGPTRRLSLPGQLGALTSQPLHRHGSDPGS

[20] = target: UDP-galactopyranose mutase (Mycobacterium tuberculosis, UniProt P9WIQ1); experiment: Inhibitors of Mycobacterium tuberculosis UDP-galactopyranose mutase (UGM) enzyme Measured in Biochemical System Using Plate Reader - 2105-02_Inhibitor_Dose_CherryPick_Activity. [Related pubchem assays (depositor defined):AID504439]
UDP-galactopyranose mutase, sequence (P9WIQ1 whole entry): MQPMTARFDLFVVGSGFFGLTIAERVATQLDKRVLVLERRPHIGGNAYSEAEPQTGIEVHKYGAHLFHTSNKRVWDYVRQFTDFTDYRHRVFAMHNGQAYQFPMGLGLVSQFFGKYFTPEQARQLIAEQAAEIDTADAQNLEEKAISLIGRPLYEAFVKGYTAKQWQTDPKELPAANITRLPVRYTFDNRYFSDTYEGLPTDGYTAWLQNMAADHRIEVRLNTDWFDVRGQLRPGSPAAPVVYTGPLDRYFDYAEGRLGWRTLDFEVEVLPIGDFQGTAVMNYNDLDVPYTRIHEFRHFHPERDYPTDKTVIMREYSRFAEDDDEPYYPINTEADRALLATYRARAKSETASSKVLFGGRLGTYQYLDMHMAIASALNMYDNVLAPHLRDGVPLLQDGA

[21] = system: Candida albicans; experiment: fluconazole-resistant Candida strain growth inhibitors – CaCi-8 strain, dry powder, set 4, dose response (AID 488950); assay type: functional, organism-based
[22] = system: Candida albicans; experiment: resistant Candida growth with fluconazole co-treatment – CaCi-8 strain, Alamar Blue, dry powder, set 2, dose response (AID 488909); assay type: functional, organism-based
[23] = target: Mu-type opioid receptor (Homo sapiens, UniProt P35372); experiment: Counterscreen for agonists of heterodimerization of the mu 1 (OPRM1) and delta 1 (OPRD1) opioid receptors: Luminescence-based cell-based high throughput dose response assay to identify agonists of OPRM1 homodimerization.; assay type: functional;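 also: U2OS cells expressing OPRM1 and beta-arrestin as split beta-galactosidase partners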
Mu-type opioid receptor, sequence (P35372 whole entry): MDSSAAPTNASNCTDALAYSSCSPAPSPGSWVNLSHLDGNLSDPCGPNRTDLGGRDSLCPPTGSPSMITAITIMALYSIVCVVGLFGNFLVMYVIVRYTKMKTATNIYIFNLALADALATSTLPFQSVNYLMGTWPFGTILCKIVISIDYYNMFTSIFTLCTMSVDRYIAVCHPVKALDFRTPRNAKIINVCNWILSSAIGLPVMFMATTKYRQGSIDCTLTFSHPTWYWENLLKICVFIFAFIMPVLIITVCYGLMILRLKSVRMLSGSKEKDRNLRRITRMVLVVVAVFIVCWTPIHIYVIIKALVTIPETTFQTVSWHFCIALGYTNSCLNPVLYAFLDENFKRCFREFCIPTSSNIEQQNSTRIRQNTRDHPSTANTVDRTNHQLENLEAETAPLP

[24] = target: 5-hydroxytryptamine receptor 5A (Homo sapiens, UniProt P47898); experiment: Counterscreen for agonists of OPRM1-OPRD1 heterodimerization: luminescence-based cell-based high throughput dose response assay to identify agonists of 5-hydroxytryptamine (serotonin) 5A receptor (HTR5A). [Related pubchem assays (depositor defined):AID504326, AID504355, AID504692, AID504904, AID504905]; assay type: functional
5-hydroxytryptamine receptor 5A, sequence (P47898 whole entry): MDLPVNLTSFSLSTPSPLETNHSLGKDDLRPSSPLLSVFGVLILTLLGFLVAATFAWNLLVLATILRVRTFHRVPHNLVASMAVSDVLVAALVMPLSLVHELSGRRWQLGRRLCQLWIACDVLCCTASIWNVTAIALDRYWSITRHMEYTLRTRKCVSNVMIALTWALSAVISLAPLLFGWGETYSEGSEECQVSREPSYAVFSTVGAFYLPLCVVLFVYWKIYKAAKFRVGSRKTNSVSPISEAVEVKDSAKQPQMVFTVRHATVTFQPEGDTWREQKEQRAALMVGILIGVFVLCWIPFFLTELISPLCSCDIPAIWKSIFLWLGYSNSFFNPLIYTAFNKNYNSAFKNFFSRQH

[25] = target: T4, Short transient receptor potential channel 4 (Mus musculus, UniProt Q9QUQ5); experiment: calcium entry via TRPC4 opening agents – cell-based, HEK293 TRPC4/mu-opioid, Fluo-4 calcium, dose response (AID 434937); assay type: functional
T4 sequence (Q9QUQ5 whole entry): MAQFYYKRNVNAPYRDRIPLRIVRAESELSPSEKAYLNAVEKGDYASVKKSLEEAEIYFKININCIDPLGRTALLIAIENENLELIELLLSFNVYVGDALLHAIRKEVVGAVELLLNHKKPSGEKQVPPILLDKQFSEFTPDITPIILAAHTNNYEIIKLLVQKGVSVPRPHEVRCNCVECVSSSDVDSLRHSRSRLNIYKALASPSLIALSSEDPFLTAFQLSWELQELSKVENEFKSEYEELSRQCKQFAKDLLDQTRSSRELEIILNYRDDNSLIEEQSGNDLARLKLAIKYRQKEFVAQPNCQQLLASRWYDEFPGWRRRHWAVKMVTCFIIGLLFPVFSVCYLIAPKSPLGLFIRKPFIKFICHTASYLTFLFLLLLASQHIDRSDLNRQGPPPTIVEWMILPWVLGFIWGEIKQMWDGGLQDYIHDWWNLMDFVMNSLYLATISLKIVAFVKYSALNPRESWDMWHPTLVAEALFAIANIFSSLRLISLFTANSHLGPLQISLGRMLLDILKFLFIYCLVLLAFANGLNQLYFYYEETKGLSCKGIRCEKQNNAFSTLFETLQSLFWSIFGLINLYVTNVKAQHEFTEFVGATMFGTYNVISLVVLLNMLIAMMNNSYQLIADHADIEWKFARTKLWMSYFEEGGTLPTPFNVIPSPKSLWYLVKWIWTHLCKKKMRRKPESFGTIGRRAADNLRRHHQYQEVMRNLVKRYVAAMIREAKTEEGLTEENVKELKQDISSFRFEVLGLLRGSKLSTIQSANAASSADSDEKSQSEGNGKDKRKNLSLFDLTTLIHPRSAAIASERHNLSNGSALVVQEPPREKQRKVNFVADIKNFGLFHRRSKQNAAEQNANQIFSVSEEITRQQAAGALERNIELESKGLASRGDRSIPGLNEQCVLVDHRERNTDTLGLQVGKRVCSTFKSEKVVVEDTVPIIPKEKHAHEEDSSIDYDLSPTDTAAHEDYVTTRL

[26] = target: Delta-type opioid receptor (Homo sapiens, UniProt P41143); experiment: Counterscreen for agonists of heterodimerization of the mu 1 (OPRM1) and delta 1 (OPRD1) opioid receptors: Luminescence-based cell-based high throughput dose response assay to identify agonists of OPRD1 homodimerization. [Related pubchem assays (depositor defined):AID504326, AID504355, AID504692, AID504904, AID504905]; assay type: functional
Delta-type opioid receptor, sequence (P41143 whole entry): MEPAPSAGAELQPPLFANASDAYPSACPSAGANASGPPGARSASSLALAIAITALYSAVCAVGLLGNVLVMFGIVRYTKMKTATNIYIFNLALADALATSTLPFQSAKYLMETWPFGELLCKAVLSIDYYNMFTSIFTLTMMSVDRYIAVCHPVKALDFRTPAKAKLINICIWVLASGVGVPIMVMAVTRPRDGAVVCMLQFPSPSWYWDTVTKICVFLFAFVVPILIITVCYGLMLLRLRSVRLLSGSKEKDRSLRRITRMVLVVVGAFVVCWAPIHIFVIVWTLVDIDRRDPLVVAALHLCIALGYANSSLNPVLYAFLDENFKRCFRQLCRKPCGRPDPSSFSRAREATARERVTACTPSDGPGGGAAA

[27] = cells; assay type: functional
[28] = THP-1 cell cytotoxicity, dose response, cytotoxicity control for non-replicating M. tuberculosis project (AID 489025); assay type: functional
[29] = target: Paired box protein Pax-8 (Homo sapiens, UniProt Q06710); experiment: PAX8 transcriptional activity inhibition in RMG-I – RMG-I cells, luciferase, cherry-pick, dose response (AID 687027); assay type: functional, cell-based;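 also: luciferase reporter driven by Pax8 target thyroperoxidase promoter measured by SteadyGlo luminescence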
Paired box protein Pax-8, sequence (Q06710 whole entry): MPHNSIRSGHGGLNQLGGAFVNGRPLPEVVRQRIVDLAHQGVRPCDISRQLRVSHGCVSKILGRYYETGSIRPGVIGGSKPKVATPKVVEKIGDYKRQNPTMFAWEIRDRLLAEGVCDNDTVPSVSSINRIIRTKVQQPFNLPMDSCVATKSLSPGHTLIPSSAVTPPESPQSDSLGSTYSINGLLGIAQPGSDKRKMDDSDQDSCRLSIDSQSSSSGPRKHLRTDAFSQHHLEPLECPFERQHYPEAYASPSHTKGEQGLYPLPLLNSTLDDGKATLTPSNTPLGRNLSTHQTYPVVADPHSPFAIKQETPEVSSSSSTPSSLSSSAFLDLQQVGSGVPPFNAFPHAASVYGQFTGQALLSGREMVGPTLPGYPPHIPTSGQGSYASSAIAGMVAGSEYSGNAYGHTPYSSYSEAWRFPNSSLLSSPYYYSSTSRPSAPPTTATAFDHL

[30] = HepG2 cell cytotoxicity, dose response, cytotoxicity control for non-replicating M. tuberculosis project (AID 489018); assay type: functional; details: Mycobacterium tuberculosis
[31] = Luminescence-based dose response cell-based high throughput screening assay for cytotoxic compounds using the IEC-6 intestinal epithelial cell line. [Related pubchem assays: 1858 (Summary AID.), 1825 (Counterscreen.), 1907 (Confirmation screen.)]; assay type: functional
[32] = system: Escherichia coli; experiment: microbe, parasite or virus in culture
[33] = system: Escherichia coli; experiment: microbe, parasite or virus in culture; remark: listed apart in the source
[34] = Vero E6 cell cytotoxicity, dose response, cytotoxicity control for non-replicating M. tuberculosis project, secondary assay (AID 492998); assay type: functional, VeroE6; details: Vero C1008
[35] = system: A-375; experiment: MITF: Counter assay: A375 proliferation Measured in Cell-Based System Using Plate Reader - 2084-03_Inhibitor_Dose_DryPowder_Activity. [Related pubchem assays (depositor defined):AID488944]; assay type: functional; details: Homo sapiens
[36] = system: A-375; experiment: proliferation inhibition in MITF-low A375 cells – cell-based, cherry-pick samples, set 2, counter-screen for MITF modulator project, dose response (AID 540335); assay type: functional; details: Homo sapiens
[37] = T. cruzi infection blockers in NIH3T3 cells – beta-gal luminescence, NIH3T3 host cells, confirmation (AID 2630); assay type: functional, cell-based; details: Mus musculus
[38] = system: HEK293; experiment: cells; details: Homo sapiens
[39] = system: HEK293; experiment: cells; details: Homo sapiens; remark: listed apart in the source

Structure (SMILES): Cc1oc(-c2ccccc2)nc1CSCC(=O)NCc1ccco1
- IC50 [1]: > 80 µM (inactive)

Structure (SMILES): Cc1nc(NC(=O)c2cccc(-c3cc4ccccc4oc3=O)c2)ccc1Br
- EC50 [2]: > 99 µM (inactive)
- AC50 [3]: 11.9 µM (active)
- AC50 [4]: 16.6 µM (active)
- EC50 [5]: > 89.2 µM (inactive)
- AC50 [6]: > 100 µM (inactive)
- EC50 [7]: > 99 µM (inactive)

Structure (SMILES): CN1CCN(c2ccc(C(=O)c3ccccc3)cc2[N+](=O)[O-])CC1
- EC50 [8]: > 150 µM (inconclusive)
- AC50 [9]: 77.6 µM (active)
- AC50 [10]: 2.09 µM (active)
- EC50 [11]: > 150 µM (not active)
- EC50 [12]: > 60 µM (not active)
- EC50 [13]: > 150 µM (not active)
- EC50 [14]: > 150 µM (not active)
- EC50 [15]: 0.399 µM (active)

Structure (SMILES): CCc1cc(=O)oc2cc(OCC(=O)N3CCC(C(=O)O)CC3)ccc12
- AC50 [16]: 14.3 µM (active)
- AC50 [6]: 31.9 µM (active)

Structure (SMILES): CCC1CCCCN1C(=O)n1ncc(C(O)(c2ccccc2)c2ccccc2)n1 (centres undefined)
- IC50 [17]: 0.000678 µM (active)
- IC50 [18]: 0.015 µM (active)

Structure (SMILES): C(=C/c1ccccc1)/c1ccccc1
- AC50 [19]: 22.4 µM (inconclusive)

Structure (SMILES): O=C(COC(=O)c1ccc([N+](=O)[O-])o1)NC1CCCC1
- AC50 [20]: > 500 µM (inactive)

Structure (SMILES): O=C(c1ccc(Cl)cc1)N1CCCN(c2ccnc3cc(Cl)ccc23)CC1
- AC50 [21]: 12.7 µM (active)
- AC50 [22]: < 0.195 µM (active)

Structure (SMILES): Cc1ccc(Cl)cc1NC(=O)CNCC(c1ccccc1)N(C)C (centres undefined)
- EC50 [23]: > 92.5 µM (inactive)
- EC50 [24]: > 92.5 µM (inactive)
- EC50 [25]: 0.376 µM (active)
- EC50 [26]: > 92.5 µM (inactive)

Structure (SMILES): CN1CCc2c(sc(NC(=O)c3ccc([N+](=O)[O-])o3)c2C(N)=O)C1
- IC50 [27]: 17.6 µM (active)
- EC50 [12]: 3.92 µM (active)
- CC50 [28]: 1.21 µM (active)
- AC50 [29]: 1.67 µM (active)
- CC50 [30]: 2.55 µM (active)
- IC50 [31]: 0.879 µM (active)
- EC50 [15]: 1.26 µM (active)
- AC50 [32]: 23.2 µM (active)
- AC50 [33]: 26.4 µM (active)
- CC50 [34]: 0.54 µM (active)

Structure (SMILES): Cc1csc(NC(=O)Cc2c(F)cccc2Cl)n1
- AC50 [35]: > 35 µM (active)
- AC50 [36]: > 35 µM (active)

Structure (SMILES): Cc1ccc(NC(=O)CCC(=O)N/N=C/c2ccc(C)o2)c(C)c1
- EC50 [37]: 195 µM (inactive)

Structure (SMILES): Cc1cc(C)nc(SC2c3cccc4cccc(c34)C2NS(=O)(=O)c2ccccc2)n1 (centres undefined)
- EC50 [38]: > 59.6 µM (inactive)
- EC50 [12]: 12.8 µM (active)
- EC50 [39]: > 59.6 µM (inactive)
- EC50 [15]: 1.87 µM (active)

Reference: ChEMBL document CHEMBL1201862, “PubChem BioAssay data set” (2004)
